Reference: patent US5110800A, “Derivatives of erythromycylamine” (Eli Lilly and Company, priority 1989, dated 1992)
Converted amounts (≈) assume the structure as drawn. Like-named read-outs stand apart in the source and are kept apart here.

Tests used:
Experiment in all cases: MIC, standard agar-dilution assay
Format in all cases: cell-based
[1] = system: Streptococcus sp. group D X66; conditions: Streptococcus, read-out: minimal inhibitory concentration (MIC)
[2] = system: Staphylococcus epidermidis 222; conditions: Staphylococcus epidermidis, 222, read-out: minimal inhibitory concentration (MIC)
[3] = system: Staphylococcus aureus X400; conditions: Staphylococcus aureus
Text: (§1) In addition to excellent in vitro activity against erythromycin-sensitive bacteria, several members of this new series have shown in vitro activity against erythromycin-resistant strains. These include strains which are inducibly-resistant to erythromycin (S. aureus V41 and X400 and S. epidermidis EPI1) and even strains which are constitutively-resistant (S. epidermidis 270).

[4] = system: Staphylococcus epidermidis 270
Text: as §1

[5] = system: Staphylococcus aureus V41; conditions: Staphylococcus aureus
Text: as §1

[6] = system: Haemophilus influenzae C.L.; conditions: Haemophilus influenzae, read-out: minimal inhibitory concentration (MIC)
[7] = system: Streptococcus pyogenes C203; conditions: Streptococcus pyogenes, C203, read-out: minimal inhibitory concentration (MIC)
[8] = system: Escherichia coli EC14; conditions: Escherichia coli
[9] = system: Staphylococcus aureus X1.1; conditions: Staphylococcus aureus, X1.1, read-out: minimal inhibitory concentration (MIC)
[10] = system: Streptococcus pneumoniae Park I; conditions: Streptococcus pneumoniae, read-out: minimal inhibitory concentration (MIC)
[11] = system: Klebsiella pneumoniae X68; conditions: Klebsiella pneumoniae
[12] = system: Streptococcus sp. group D 2041; conditions: Streptococcus, read-out: minimal inhibitory concentration (MIC)
[13] = system: Haemophilus influenzae 76
[14] = system: Staphylococcus aureus S13E; conditions: Staphylococcus aureus, S13E, read-out: minimal inhibitory concentration (MIC)
[15] = X400, Table IV, methicillin-resistant strain, inducibly erythromycin-resistant, read-out: minimal inhibitory concentration (MIC)
[16] = Staphylococcus epidermidis, 270, Table IV, constitutively erythromycin-resistant, read-out: minimal inhibitory concentration (MIC)
[17] = V41, Table IV, penicillin-resistant strain, inducibly erythromycin-resistant, read-out: minimal inhibitory concentration (MIC)
[18] = EC14, read-out: minimal inhibitory concentration (MIC)
[19] = X68, Table IV, agar dilution, read-out: minimal inhibitory concentration (MIC)
[20] = X68, read-out: minimal inhibitory concentration (MIC)
[21] = Haemophilus influenzae, 76, read-out: minimal inhibitory concentration (MIC)
[22] = Haemophilus influenzae, 76, Table IV, ampicillin-resistant strain, read-out: minimal inhibitory concentration (MIC)
[23] = EC14, Table IV, agar dilution, read-out: minimal inhibitory concentration (MIC)

Compound | MIC [1] [µg/mL] | MIC [2] [µg/mL] | MIC [3, 15] [µg/mL] | MIC [4, 16] [µg/mL] | MIC [5, 17] [µg/mL] | MIC [6] [µg/mL] | MIC [7] [µg/mL] | MIC [8, 18] [µg/mL] | MIC [9] [µg/mL] | MIC [10] [µg/mL] | MIC [11, 19] [µg/mL] | MIC [12] [µg/mL] | MIC [13, 21] [µg/mL] | MIC [13, 22] [µg/mL] | MIC [8, 23] [µg/mL] | MIC [14] [µg/mL] | also measured
CC[C@H]1OC(=O)[C@H](C)[C@@H](O[C@H]2C[C@@](C)(OC)[C@@H](O)[C@H](C)O2)[C@H](C)[C@@H](O[C@@H]2O[C@H](C)C[C@H](N(C)C)[C@H]2O)[C@](C)(O)C[C@@H](C)[C@H](NCCCc2ccccc2)[C@H](C)[C@@H](O)[C@]1(C)O [Compound 17, (9S)-9-Deoxo-9-[(3-phenylpropyl)amino]erythromycin] | 0.06 (≈ 0.0703 µM) | 0.5 (≈ 0.586 µM) | > 128 | > 128 | > 128 | 2 (≈ 2.34 µM) | 0.015 (≈ 0.0176 µM) | 128 (≈ 150 µM) | 1 (≈ 1.17 µM) | 0.015 (≈ 0.0176 µM) | > 128 | 2 (≈ 2.34 µM) | – | – | – | – | –
CCCCCN[C@@H]1[C@H](C)[C@@H](O)[C@](C)(O)[C@@H](CC)OC(=O)[C@H](C)[C@@H](O[C@H]2C[C@@](C)(OC)[C@@H](O)[C@H](C)O2)[C@H](C)[C@@H](O[C@@H]2O[C@H](C)C[C@H](N(C)C)[C@H]2O)[C@](C)(O)C[C@H]1C [Compound 5, 9-Deoxo-9-(n-pentylamino)erythromycin] | 0.125 (≈ 0.155 µM) | – | > 128 | > 128 | > 128 | – | 0.06 (≈ 0.0745 µM) | 128 (≈ 159 µM) | – | 0.015 (≈ 0.0186 µM) | – | – | – | – | – | – | MIC [11, 20]: 128 µg/mL (≈ 159 µM)
CC[C@H]1OC(=O)[C@H](C)[C@@H](O[C@H]2C[C@@](C)(OC)[C@@H](O)[C@H](C)O2)[C@H](C)[C@@H](O[C@@H]2O[C@H](C)C[C@H](N(C)C)[C@H]2O)[C@](C)(O)C[C@@H](C)[C@H](NCC2CCCCCCC2)[C@H](C)[C@@H](O)[C@]1(C)O [Compound 16, 9-Deoxo-9-[(cyclooctylmethyl)amino]erythromycin] | – | 0.25 (≈ 0.291 µM) | – | > 128 | – | – | – | – | 0.5 (≈ 0.582 µM) | – | > 128 | 1 (≈ 1.16 µM) | 1 (≈ 1.16 µM) | – | – | – | –
CCCCN[C@@H]1[C@H](C)[C@@H](O)[C@](C)(O)[C@@H](CC)OC(=O)[C@H](C)[C@@H](O[C@H]2C[C@@](C)(OC)[C@@H](O)[C@H](C)O2)[C@H](C)[C@@H](O[C@@H]2O[C@H](C)C[C@H](N(C)C)[C@H]2O)[C@](C)(O)C[C@H]1C [Compound 4, 9-Deoxo-9-(n-butylamino)erythromycin] | 0.125 (≈ 0.158 µM) | 0.25 (≈ 0.316 µM) | > 128 | > 128 | > 128 | 1 (≈ 1.26 µM) | 0.06 (≈ 0.0758 µM) | – | 0.25 (≈ 0.316 µM) | 0.015 (≈ 0.019 µM) | – | 1 (≈ 1.26 µM) | 1 (≈ 1.26 µM) | – | – | – | –
CC[C@H]1OC(=O)[C@H](C)[C@@H](O[C@H]2C[C@@](C)(OC)[C@@H](O)[C@H](C)O2)[C@H](C)[C@@H](O[C@@H]2O[C@H](C)C[C@H](N(C)C)[C@H]2O)[C@](C)(O)C[C@@H](C)[C@H](NCCCSC)[C@H](C)[C@@H](O)[C@]1(C)O [Compound 26, 9-Deoxo-9-[[3-(methylthio)propyl]amino]erythromycin] | 0.25 (≈ 0.304 µM) | – | > 128 | > 128 | > 128 | – | 0.015 (≈ 0.0182 µM) | 128 (≈ 156 µM) | – | 0.015 (≈ 0.0182 µM) | > 128 | – | – | – | – | – | –
CC[C@H]1OC(=O)[C@H](C)[C@@H](O[C@H]2C[C@@](C)(OC)[C@@H](O)[C@H](C)O2)[C@H](C)[C@@H](O[C@@H]2O[C@H](C)C[C@H](N(C)C)[C@H]2O)[C@](C)(O)C[C@@H](C)[C@H](NCCC2=C(C)CCCC2(C)C)[C@H](C)[C@@H](O)[C@]1(C)O [Compound 30, 9-Deoxo-9-[[2-(2,6,6-trimethyl-1-cyclohexen-1-yl)ethyl]amino]erythromycin] | 0.125 (≈ 0.141 µM) | 1 (≈ 1.13 µM) | 32 (≈ 36.1 µM) | 64 (≈ 72.3 µM) | 16 (≈ 18.1 µM) | – | 0.5 (≈ 0.565 µM) | – | 1 (≈ 1.13 µM) | – | > 128 | 2 (≈ 2.26 µM) | – | 4 (≈ 4.52 µM) | > 128 | 2 (≈ 2.26 µM) | MIC ([6]; Table IV, ampicillin-sensitive strain): 4 µg/mL (≈ 4.52 µM)
CC[C@H]1OC(=O)[C@H](C)[C@@H](O[C@H]2C[C@@](C)(OC)[C@@H](O)[C@H](C)O2)[C@H](C)[C@@H](O[C@@H]2O[C@H](C)C[C@H](N(C)C)[C@H]2O)[C@](C)(O)C[C@@H](C)[C@H](NC)[C@H](C)[C@@H](O)[C@]1(C)O [Compound 1, 9-Deoxo-9-(methylamino)erythromycin] | 0.125 (≈ 0.167 µM) | 0.25 (≈ 0.334 µM) | – | > 128 | – | – | 0.06 (≈ 0.0801 µM) | – | 1 (≈ 1.34 µM) | – | – | 1 (≈ 1.34 µM) | 1 (≈ 1.34 µM) | – | – | – | –
C=CCCCCCCCCCN[C@@H]1[C@H](C)[C@@H](O)[C@](C)(O)[C@@H](CC)OC(=O)[C@H](C)[C@@H](O[C@H]2C[C@@](C)(OC)[C@@H](O)[C@H](C)O2)[C@H](C)[C@@H](O[C@@H]2O[C@H](C)C[C@H](N(C)C)[C@H]2O)[C@](C)(O)C[C@H]1C [Compound 28, 9-Deoxo-9-[(undec-10-enyl)amino]erythromycin] | 0.125 (≈ 0.141 µM) | 1 (≈ 1.13 µM) | 8 (≈ 9.02 µM) | 32 (≈ 36.1 µM) | 8 (≈ 9.02 µM) | 2 (≈ 2.25 µM) | 1 (≈ 1.13 µM) | – | 2 (≈ 2.25 µM) | – | > 128 | 2 (≈ 2.25 µM) | – | 2 (≈ 2.25 µM) | > 128 | 2 (≈ 2.25 µM) | –
CCCCCCCCCCN[C@@H]1[C@H](C)[C@@H](O)[C@](C)(O)[C@@H](CC)OC(=O)[C@H](C)[C@@H](O[C@H]2C[C@@](C)(OC)[C@@H](O)[C@H](C)O2)[C@H](C)[C@@H](O[C@@H]2O[C@H](C)C[C@H](N(C)C)[C@H]2O)[C@](C)(O)C[C@H]1C [Compound 9, 9-Deoxo-9-(n-decylamino)erythromycin] | 0.25 (≈ 0.286 µM) | 1 (≈ 1.14 µM) | – | – | – | 2 (≈ 2.29 µM) | 0.015 (≈ 0.0171 µM) | – | 1 (≈ 1.14 µM) | 0.015 (≈ 0.0171 µM) | > 128 | 2 (≈ 2.29 µM) | 1 (≈ 1.14 µM) | – | > 128 | – | –
CC[C@H]1OC(=O)[C@H](C)[C@@H](O[C@H]2C[C@@](C)(OC)[C@@H](O)[C@H](C)O2)[C@H](C)[C@@H](O[C@@H]2O[C@H](C)C[C@H](N(C)C)[C@H]2O)[C@](C)(O)C[C@@H](C)[C@H](NCCCC#N)[C@H](C)[C@@H](O)[C@]1(C)O [Compound 29, 9-Deoxo-9-[(3-cyanopropyl)amino]erythromycin] | 0.125 (≈ 0.156 µM) | 1 (≈ 1.25 µM) | – | – | – | 2 (≈ 2.49 µM) | 1 (≈ 1.25 µM) | – | 1 (≈ 1.25 µM) | – | – | – | – | 4 (≈ 4.99 µM) | 64 (≈ 79.8 µM) | 128 (≈ 160 µM) | MIC ([3]; X400, read-out: minimal inhibitory concentration (MIC)): > 128 µg/mL; MIC ([4]; Staphylococcus epidermidis, 270, read-out: minimal inhibitory concentration (MIC)): > 128 µg/mL; MIC ([5]; V41, read-out: minimal inhibitory concentration (MIC)): > 128 µg/mL; MIC [11, 20]: 128 µg/mL (≈ 160 µM); MIC ([12]; Table IV, agar dilution): 4 µg/mL (≈ 4.99 µM)
CCCCCCCCCCCCN[C@@H]1[C@H](C)[C@@H](O)[C@](C)(O)[C@@H](CC)OC(=O)[C@H](C)[C@@H](O[C@H]2C[C@@](C)(OC)[C@@H](O)[C@H](C)O2)[C@H](C)[C@@H](O[C@@H]2O[C@H](C)C[C@H](N(C)C)[C@H]2O)[C@](C)(O)C[C@H]1C [Compound 10, 9-Deoxo-9-(n-dodecylamino)erythromycin] | 1 (≈ 1.11 µM) | – | – | – | – | – | – | – | – | 0.06 (≈ 0.0664 µM) | > 128 | – | – | – | > 128 | – | –
CCOC(=O)C1CC1CN[C@@H]1[C@H](C)[C@@H](O)[C@](C)(O)[C@@H](CC)OC(=O)[C@H](C)[C@@H](O[C@H]2C[C@@](C)(OC)[C@@H](O)[C@H](C)O2)[C@H](C)[C@@H](O[C@@H]2O[C@H](C)C[C@H](N(C)C)[C@H]2O)[C@](C)(O)C[C@H]1C (stereo partly shown) [Compound 27, 9-Deoxo-9-[[[2-(ethoxycarbonyl)cyclopropyl]methyl]amino]erythromycin] | 0.125 (≈ 0.145 µM) | 0.5 (≈ 0.581 µM) | > 128 | > 128 | > 128 | 2 (≈ 2.32 µM) | 0.5 (≈ 0.581 µM) | 128 (≈ 149 µM) | 1 (≈ 1.16 µM) | – | – | 2 (≈ 2.32 µM) | – | 2 (≈ 2.32 µM) | – | 1 (≈ 1.16 µM) | MIC [11, 20]: 128 µg/mL (≈ 149 µM)
